{
  "source": "patent US20180256595A1",
  "about": "“AGENT FOR ENHANCING OCULAR HYPOTENSIVE EFFECT” (KOWA COMPANY, LTD., priority 2015, published 2018)",
  "assay": "Multi-center open-label study: continuous ocular instillation of 0.4% ripasudil ophthalmic solution twice daily for 52 weeks, change in intra-ocular pressure",
  "assay_type": "in vivo, patients",
  "description": "A multi-center open-label study was performed using a cohort for a monotherapy of ripasudil ophthalmic solution (173 cases) and a cohort for an additive therapy of a ripasudil ophthalmic solution in combination with another agent (181 cases) (additive therapy to a PG related drug: 62 cases, additive therapy to a β blocker: 60 cases, additive therapy to a combination drug of said PG-related drug and said β blocker: 59 cases). Patients with primary open angle glaucoma, ocular hypertension, and exfoliation glaucoma (one type of secondary glaucoma to cause aqueous humor outflow resistance due to exfoliation substances in aqueous humor or the like) having a pre-treatment intra-ocular pressure of 15 mmHg or higher or a post-treatment intra-ocular pressure of 15 mmHg or higher at the time after treatment of a PG-related drug, a β-blocker, or a combination drug of the PG-related drug and β-blocker were enrolled. A 0.4% ripasudil ophthalmic solution was dropped into an eye twice daily for 52 weeks. In order to evaluate intra-ocular pressure-lowering effect over time caused by long-term ocular instillation, the amount of change in intra-ocular pressure (least mean square value) in a second half of ocular instillation (32 weeks to 52 weeks) with respect to a first half of ocular instillation (4 weeks to 28 weeks) was examined. Statistical analysis was performed using SAS (SAS Inc., Cary, N.C.) by a least squares method based on a mixed effect model.",
  "key": {"[1]": {"details": "2 hours after ocular instillation, baseline intra-ocular pressure 15≤ to <18 mmHg"}, "[2]": {"details": "2 hours after ocular instillation, baseline intra-ocular pressure 18≤ to <−21 mmHg"}, "[3]": {"details": "2 hours after ocular instillation, baseline intra-ocular pressure 21≤ mmHg"}, "[4]": {"details": "2 hours after ocular instillation, whole cohort, least mean square value ± SE"}, "[5]": {"details": "before ocular instillation (immediately before ocular instillation in the morning), whole cohort, least mean square value ± SE"}, "[6]": {"details": "before ocular instillation, baseline intra-ocular pressure 15≤ to <18 mmHg"}, "[7]": {"details": "before ocular instillation, baseline intra-ocular pressure 18≤ to <−21 mmHg"}, "[8]": {"details": "before ocular instillation, baseline intra-ocular pressure 21≤ mmHg"}},
  "data": [
    {"smiles": "C[C@H]1CNCCCN1S(=O)(=O)c1cccc2cncc(F)c12", "note": "[Ripasudil only, (S)-(−)-1-(4-fluoro-5-isoquinolinesulfonyl)-2-methyl-1,4-homopiperazine]", "values": [
      {"measurement": "Change from the baseline intra-ocular pressure First half (Week 4-28)", "setting": "[1]", "value": "−2.86 ± 0.24", "unit": "mmHg"},
      {"measurement": "Change from the baseline intra-ocular pressure Second half (Week 32-52)", "setting": "[1]", "value": "−3.35 ± 0.25", "unit": "mmHg"},
      {"measurement": "Difference (second half with respect to first half)", "setting": "[1]", "value": "−0.49 ± 0.12", "unit": "mmHg"},
      {"measurement": "Change from the baseline intra-ocular pressure First half (Week 4-28)", "setting": "[2]", "value": "−3.24 ± 0.22", "unit": "mmHg"},
      {"measurement": "Change from the baseline intra-ocular pressure Second half (Week 32-52)", "setting": "[2]", "value": "−3.71 ± 0.22", "unit": "mmHg"},
      {"measurement": "Difference (second half with respect to first half)", "setting": "[2]", "value": "−0.47 ± 0.11", "unit": "mmHg"},
      {"measurement": "Change from the baseline intra-ocular pressure First half (Week 4-28)", "setting": "[3]", "value": "−3.55 ± 0.40", "unit": "mmHg"},
      {"measurement": "Change from the baseline intra-ocular pressure Second half (Week 32-52)", "setting": "[3]", "value": "−4.39 ± 0.41", "unit": "mmHg"},
      {"measurement": "Difference (second half with respect to first half)", "setting": "[3]", "value": "−0.84 ± 0.17", "unit": "mmHg"},
      {"measurement": "Difference (second half with respect to first half)", "setting": "2 hours after ocular instillation, whole cohort", "value": "−0.58 ± 0.08", "unit": "mmHg"},
      {"measurement": "Change from the baseline intra-ocular pressure First half (Week 4-28)", "setting": "[4]", "value": "−3.23 ± 0.17", "unit": "mmHg"},
      {"measurement": "Change from the baseline intra-ocular pressure Second half (Week 32-52)", "setting": "[4]", "value": "−3.81 ± 0.17", "unit": "mmHg"},
      {"measurement": "Change from the baseline intra-ocular pressure Second half (Week 32-52)", "setting": "2 hours after ocular instillation, whole cohort, least mean square value ± SE, listed as ripasudil", "value": "−3.81", "unit": "mmHg"},
      {"measurement": "Difference (second half with respect to first half)", "setting": "2 hours after ocular instillation, whole cohort, listed as ripasudil", "value": "−0.58", "unit": "mmHg"},
      {"measurement": "Difference (second half with respect to first half)", "setting": "before ocular instillation (immediately before ocular instillation in the morning), whole cohort", "value": "−0.49 ± 0.07", "unit": "mmHg"},
      {"measurement": "Change from the baseline intra-ocular pressure First half (Week 4-28)", "setting": "[5]", "value": "−2.12 ± 0.15", "unit": "mmHg"},
      {"measurement": "Change from the baseline intra-ocular pressure Second half (Week 32-52)", "setting": "[5]", "value": "−2.61 ± 0.15", "unit": "mmHg"},
      {"measurement": "Change from the baseline intra-ocular pressure Second half (Week 32-52)", "setting": "before ocular instillation (immediately before ocular instillation in the morning), whole cohort, least mean square value ± SE, listed as ripasudil", "value": "−2.61", "unit": "mmHg"},
      {"measurement": "Difference (second half with respect to first half)", "setting": "before ocular instillation (immediately before ocular instillation in the morning), whole cohort, listed as ripasudil", "value": "−0.49", "unit": "mmHg"},
      {"measurement": "Change from the baseline intra-ocular pressure First half (Week 4-28)", "setting": "[6]", "value": "−1.30 ± 0.25", "unit": "mmHg"},
      {"measurement": "Change from the baseline intra-ocular pressure Second half (Week 32-52)", "setting": "[6]", "value": "−1.70 ± 0.26", "unit": "mmHg"},
      {"measurement": "Difference (second half with respect to first half)", "setting": "[6]", "value": "−0.40 ± 0.12", "unit": "mmHg"},
      {"measurement": "Change from the baseline intra-ocular pressure First half (Week 4-28)", "setting": "[7]", "value": "−2.38 ± 0.16", "unit": "mmHg"},
      {"measurement": "Change from the baseline intra-ocular pressure Second half (Week 32-52)", "setting": "[7]", "value": "−2.66 ± 0.17", "unit": "mmHg"},
      {"measurement": "Difference (second half with respect to first half)", "setting": "[7]", "value": "−0.28 ± 0.11", "unit": "mmHg"},
      {"measurement": "Change from the baseline intra-ocular pressure First half (Week 4-28)", "setting": "[8]", "value": "−2.52 ± 0.34", "unit": "mmHg"},
      {"measurement": "Change from the baseline intra-ocular pressure Second half (Week 32-52)", "setting": "[8]", "value": "−3.42 ± 0.35", "unit": "mmHg"},
      {"measurement": "Difference (second half with respect to first half)", "setting": "[8]", "value": "−0.91 ± 0.16", "unit": "mmHg"},
      {"measurement": "Difference (second half with respect to first half)", "setting": "before ocular instillation, baseline intra-ocular pressure 21≤ mmHg, listed as ripasudil", "value": "−0.91", "unit": "mmHg"},
      {"measurement": "intra-ocular pressure-lowering effect on long-term continuous administration (in words)", "setting": "long-term continuous ocular instillation", "value": "exhibited a further intra-ocular pressure-lowering effect by continuous ocular instillation"}
    ]}
  ]
}
